Results reported in ChEMBL document CHEMBL3351656, “Discovery of novel 2-[2-(3-hydroxy-pyridin-2-yl)-thiazol-4-yl]-acetamide derivatives as HIF prolyl 4-hydroxylase inhibitors; SAR, synthesis and modeling evaluation” (Bioorg Med Chem Lett, 2014).
≈ marks a conversion by molar mass, not a printed value.

Test: Solubility of the compound at pH 7.4
Format: physicochemical
Conditions: buffer

Compound	solubility [µg/mL]
N#Cc1cnc(-c2nc(CC(=O)NCCc3ccccc3)cs2)c(O)c1	13.6 (≈ 37.3 µM)
N#Cc1cnc(-c2nc(CC(=O)N[C@H](C(=O)O)c3ccccc3)cs2)c(O)c1	> 195
CCN(CC)CCNC(=O)Cc1nc(-c2ncc(C#N)c(C)c2O)sc1C	85.9 (≈ 222 µM)
N#Cc1cnc(-c2nc(CC(=O)NCCc3ccccn3)c(-c3ccccc3)s2)c(O)c1	117 (≈ 265 µM)
Cc1c(C#N)cnc(-c2nc(CC(=O)NCCc3ccccn3)c(-c3ccccc3)s2)c1O	0.74 (≈ 1.62 µM)
CCNC(=O)Cc1nc(-c2ncc(C#N)c(C)c2O)sc1C	13.9 (≈ 43.9 µM)
N#Cc1cnc(-c2nc(CC(=O)NCc3ccccc3)cs2)c(O)c1	24.1 (≈ 68.8 µM)
CCN(CC)CCNC(=O)Cc1csc(-c2ncc(C#N)c(C)c2O)n1	> 185
Cc1sc(-c2ncc(C#N)c(C)c2O)nc1CC(=O)NCCc1ccccn1	6.4 (≈ 16.3 µM)
Cc1sc(-c2ncc(C#N)cc2O)nc1CC(=O)NCCc1ccccn1	78.4 (≈ 207 µM)
N#Cc1cnc(-c2nc(CC(=O)N[C@@H](C(=O)O)c3ccccc3)cs2)c(O)c1	> 195
CC(C)(NC(=O)Cc1csc(-c2ncc(C#N)cc2O)n1)C(=O)O	28.9 (≈ 83.4 µM)
N#Cc1cnc(-c2nc(CC(=O)N[C@@H](CO)c3ccccc3)cs2)c(O)c1	> 188
N#Cc1cnc(-c2nc(CC(=O)N[C@H](CO)c3ccccc3)cs2)c(O)c1	> 188
N#Cc1cnc(-c2nc(CC(=O)NCCc3ccccn3)cs2)c(O)c1	> 181
N#Cc1cnc(-c2nc(CC(=O)NCC(=O)O)cs2)c(O)c1	106 (≈ 332 µM)
N#Cc1cnc(-c2nc(CC(=O)N3CCCC3)cs2)c(O)c1	108 (≈ 342 µM)
Cc1c(C#N)cnc(-c2nc(CC(=O)NCCc3ccccn3)cs2)c1O	11.2 (≈ 29.5 µM)
